Assay results: US20250017907A1, “METHOD FOR PREVENTING AND/OR TREATING LIVER FIBROSIS BY USING 6-METHOXYBENZOXAZOLINONE AND COIX LACHRYMA-JOBI L. EXTRACT COMPRISING 6-METHOXYBENZOXAZOLINONE” (Taichung District Agricultural Research and Extension …, priority 2023, published 2025)

Tests used:
[1] = test system: PI3K and ERK signaling pathway; assay: Western blot of PI3K and ERK signaling pathway; format: cell-based, rat; settings: TGF-β1-activated HSC-T6 cells, CX
Description: The procedure of cell cultures is as follows. HSC-T6 cell is an immortalized cell line isolated from transformed SV40 large T-antigen transformed primary stellate cells of male Sprague-Dawley rats. HSC-T6 cells were maintained in Dulbecco's Modified Eagle Medium (DMEM, Sigma-Aldrich, USA) containing 8% fetal bovine serum (FBS, HyClone, USA), 100 U/mL of penicillin, and 100 μg/mL of streptomycin (Gibco, USA).
For hepatic stellate cell (HSC) activation, cells were cultured for 24 h and then replaced with serum-free medium for 24 h, after that, treated with transforming growth factor beta 1 (TGF-β1) (10 ng/mL) in the presence or absence of CX (10-100 μM) or adlay leaf, root, and seed extracts (25 and 50 μg/mL) for 24 h, or 30 min for intracellular signal pathways.
The procedure of Western blot analysis is as follows. Cells were lysed in RIPA buffer with protease inhibitor and then centrifuged at 4° C., 12000 rpm for 10 min. Collected the supernatant and quantified the total protein concentration to 50 μg. After heating at 95° C. for 10 min, the protein samples were separated by SDS-PAGE gel, transferred to PVDF membrane, followed by blocking with 6% milk, incubated with primary antibodies at 4° C., overnight and secondary antibodies at room temperature for 1 h. Blot images were visualized on Amersham Imager 680 (Cytiva, USA) with ECL agent (GeneDireX, USA).

[2] = test system: TAA-induced liver fibrotic C57BL/6J mice; assay: Real-time PCR of liver fibrotic and inflammatory genes; format: in vivo; settings: CX groups (20 and 50 mg/kg oral, 6 weeks); vs TAA group
Description: (§1) For tests of adlay extracts, mice were randomly divided into the following seven groups (n=6, per group): (1) No treatment group (NT, normal diet), (2) Thioacetamide group (TAA, 200 mg/kg, normal diet), (3) 10% adlay seed powder (ASP) group, (4) 1% adlay leaf powder (ALP) group, (5) 1% adlay seed polysaccharide (ASPS) group, (6) 0.025% adlay seed ethanolic extract (ASE) group and (7) 0.1% ASE group. NT group received pure saline, and other groups intraperitoneally injected with TAA dissolved into saline thrice a week.
(§2) For tests of CX, mice were randomly divided into the following four groups (n=8, per group): (1) NT group, (2) TAA group (200 mg/kg), (3) CX group (CX20, 20 mg/kg), and (4) CX group (CX50, 50 mg/kg). NT group received pure saline, and other groups intraperitoneally injected with TAA dissolved into saline thrice a week. Moreover, NT group and TAA group also received 5% propylene glycol, while CX groups received CX dissolved into 5% propylene glycol (prepared in 0.9% saline) by oral gavage once per day.
The procedure of real-time PCR analysis is as follows. Total RNA was extracted with the Trizol reagent (Ambion, USA) and then reverse-transcribed into cDNA with RevertAid First Strand cDNA Synthesis kit (Thermo Scientific, USA). The PCR amplification was accomplished with SYBR Green PCR Master Mix (Applied Biosystems, USA), and the mRNA expression of the gene was normalized to GAPDH. All primers were obtained from Genomics (Genomics, Taiwan). Rat primer sequences are used for real-time PCR of HSC-T6 cells, and mouse primer sequences are used for real-time PCR of C57BL/6J mice.

[3] = test system: TAA-induced liver fibrotic C57BL/6J mice; assay: Serum biochemical analysis (liver function and nutrient metabolism); format: in vivo; settings: CX groups (20 and 50 mg/kg oral, 6 weeks); vs TAA group
Description: as §1, §2
At the end of the experiment, the mice were sacrificed. Serum was obtained from the whole blood of mice after centrifuging and stored at −80° C., and the liver tissues were collected and used for the tissue histological staining.
The procedure of biochemical analysis is as follows. The levels of serum alanine aminotransferase (ALT), aspartate aminotransferase (AST), total bilirubin (TBIL), alkaline phosphatase (ALP), total cholesterol (TC), total glyceride (TG), and glucose were measured with the chemistry analyzer. Briefly, after centrifuging the whole blood from mice, collected the serum, dropped the serum at the tested chips for analysis with an Automated Clinical Chemistry Analyzer (Fuji, Japan).

[4] = test system: TGF-β1-activated HSC-T6 cells; assay: Wound healing assay; format: cell-based, rat
Description: The procedure of wound healing assay is as follows. HSC-T6 cells were seeded on the 6-well plates for 24 h, scraped monolayer cells with a 200 μL pipette tip and washed off non-adherent cells by PBS, changed serum-free medium for 24 h, then treated with TGF-β1 and CX for 0, 24, and 48 h.

[5] = test system: TAA-induced liver fibrotic C57BL/6J mice; assay: Serum TGF-β1 ELISA; format: in vivo; settings: CX groups (20 and 50 mg/kg oral, 6 weeks); vs TAA group
Description: as §2
To examine the effects of CX on liver fibrosis, this example established a TAA-induced liver fibrotic C57BL/6J mouse model. FIG. 6 is a schematic diagram of animal experiment design in 6-methoxybenzoxazolinone (6-MBOA) (CX) groups. For animal experiments, 6-week-old C57BL/6J mice were randomly divided into four groups including NT, TAA, CX20 (TAA+20 mg/kg CX), CX50 (TAA+50 mg/kg CX). (n=8 per group). […]
The procedure of TGF-β1 enzyme-linked immunosorbent assay (ELISA) is as follows. The level of TGF-β1 was detected in serum by using commercial mouse ELISA kits (Invitrogen, USA) and the working procedure was followed a standard sandwich ELISA protocol. […] After reacted with stop solution, immediately measured the color intensity at 450 nm by ELISA reader (TECAN, Switzerland).

COc1ccc2[nH]c(=O)oc2c1 [CX, 6-methoxybenzoxazolinone]
phosphorylation of ERK (p-ERK1/2, Western blot) [1]: did not cause significant changes | phosphorylation of PI3K (p-PI3K, Western blot) [1]: did not cause significant changes | TAA-induced downregulation of liver IL-10 mRNA level [2]: significantly decreased | TAA-induced upregulation of liver COL1A1 mRNA [2]: significantly decreased | TAA-induced upregulation of liver IL-6 mRNA level [2]: significantly decreased | TAA-induced upregulation of liver TNF-α mRNA level [2]: significantly decreased | TAA-induced upregulation of liver α-SMA mRNA [2]: significantly decreased | changes in serum TC level caused by TAA [3]: significantly reduced | changes in serum TG level caused by TAA [3]: significantly reduced | changes in serum glucose level caused by TAA [3]: significantly reduced | serum ALP [3]: decreased significantly | serum ALT [3]: decreased significantly | serum AST [3]: decreased significantly | serum TBIL [3]: decreased significantly | TGF-β1-induced wound closure of 24 h ([4]; HSC-T6, CX at a dose of 100 μM): significantly reduced | TGF-β1-induced wound closure of 48 h ([4]; HSC-T6, CX at a dose of 20-100 μM): reduced | upregulation of TGF-β1 in serum caused by TAA (ELISA) [5]: significantly reduced
